Series [1] concerns MDA-MB-435 (breast) xenografts. Briefly: growth inhibition of MDA-MB-435 xenografts. The following applies: 20 mg/kg, IP. Type of series: in vivo, mice.
In a further series the test system is MDA-MB-231. Briefly: growth inhibition (GI50) of tumor cell lines. It is filed as cell-based. The note with it: MDA-MB-231, FIG. 1. The protocol:
(§1) A number of tumor cell lines representing breast, lung, colon, ovarian and prostate cancer as well as melanoma were assayed under standard growth conditions in presence of varying amounts of diazonamide A, a hydroxylated form of Compound J, Compound J, paclitaxel and vinblastine. The results are graphed as the concentration that diminishes growth by a factor of two (GI50) in FIG. 1.

Series [2] deals with melanoma tumor cell lines. In words: growth inhibition (GI50) of tumor cell lines. Type of series: cell-based. The following applies: FIG. 1. The protocol: as §1
The next series concerns PC-3 xenografts. Briefly: growth inhibition of PC-3 xenografts. Type of series: in vivo, mice. The following applies: 20 mg/kg; for inhibition of growth of PC-3 xenografts: FIG. 4B; for % Max T/C / Log10 Tumor Cell Kill: PC3 (prostate), IV. The protocol:
In FIG. 4B, the squares are the control, the dark circles are the data-points for Compound J and the light diamonds are data-points for paclitaxel.
The details of the protocol for Examples 19 and 20 are as follows:
• PC3 prostrate tumor cells and HCT116 colon tumor cells (acquired from the tumor repository Division of Cancer Treatment and Diagnosis (DCTD) of the NCI • Complete RPMI Media • RPMI (Cat# 11875-085, Invitrogen) • 10% Heat-inactivated (30′ 56° C.) Fetal Bovine Serum (Cat# 100-106, Gemini Bio-Products • 2 mM L-glutamine (Cat# 25030-081, Invitrogen) • 0.1 mM MEM Non-Essential Amino Acids Solution (Cat#11140-050, Invitrogen) • 10 U/ml Penicillin/10 μg/ml Streptomycin (Cat#15140-122, Invitrogen) • 1 mM Sodium Pyruvate (Cat#l 1360-070) • Trypsin-EDTA (Cat#25300-054, Invitrogen) • Ca^2+/Mg^2+-free Phosphate Buffered Saline, 5% dextrose in water • Cell Culture Dish 150 mm×25 mm (Cat# 430599, Coming, Inc.) • 10 and 25 ml pipets, standard pipet-aid, p200 and p1000 pipette tips and standard pipetmen • Athymic NCr-nu/nu nude mice at 6-12 weeks of age, either sex (Strain code: 01B74, NCI Frederick Animal Production Program—suppliers include Charles River Labs and Taconic Farms). Female mice of approximately 7 weeks of age were utilized for existing experiments. • Standard 1 cc tuberculin syringe, 30G½ and 25G⅝ needles (Becton Dickinson) • Falcon 5 ml tubes (Cat#352054) • 50 and 15 ml disposable plastic conical tubes (Falcon or similar vendor) • Trypan Blue Solution (0.4%) (Cat#T8154, Sigma) • Hausser phase contrast hemacytometer (Cat# 02-671-54, Fisher) • Ice bucket • Balance for weighing mice (accurate to 0.2 g) • Vernier calipers • Vivarium facility free from known pathogens (nude mice should be housed in isolation from conventional mice if possible—separate rooms or micro-isolator cages equipped with individual air flow; all animal housing, bedding, water should be autoclaved prior to use; standard irradiated mouse chow should be used; animals should be changed out of cages within laminar flow hood; investigators handling mice should be suitably garbed—disposable gown, bonnet, booties, gloves, mask) • AB-5 (Compound J) compound • Ethyl alcohol, 200 proof (Aaper, MFD 041205) • Cremaphor (Cat# C5135, Sigma) • Paclitaxel (Cat#ANP0010, Polymed Therapeutics) Procedure: • 1) Rapidly thaw PC3 or HCT116 cells (if necessary) in 37° C. water bath. Transfer contents to 9ml complete RPMI media. Spin 5′ at 1200 rpm (240 Xg). Discard media and resuspend pellet in 8 ml complete RPMI media. Plate in 100 mm×25 mm cell culture dish in 5% CO2, 37° C. humidified incubator. • 2) Allow to grow for 5-10 days, splitting (aspirate media, wash with 3-5 ml PBS, add 1 ml trypsin-EDTA, incubate 3-5′ at 37° C., add media to desired volume and transfer to multiple plates) 1:8 to 1:10 every 3-4 days as necessary to allow cells to enter phase of logarithmic growth. • 3) When cells are growing well, begin to expand to 150 mm×25 mm dishes. We use 20 ml of media in a 150 mm dish and use 2 ml of trypsin for splitting. When nearly confluent, there should be 2×10^7 cells/150 mm dish. • 4) Plan ahead to time arrival of nu/nu mice such that they can acclimate to animal facility for 1 week prior to injection of tumor cells. […] Plan to inject 10 million cells/mouse and allow for loss of cells/volume during injection process. That is, if 30 mice are to be injected, plan to harvest cells sufficient for at least 35 injections—35×10 million cells=3.5×10^8 cells. In the existing HCT116 experiment, 7.5×10^6 cells were injected per mouse. Five mice per group were utilized for AB-5 treatment and four mice per group were utilized for the control and paclitaxel treatments. In the existing PC3 experiment, 10^7 cells were injected. Six mice per group were utilized for the control treatment and five mice per group were utilized for the AB-5 and paclitaxel treatments. […]

In series [3] the test system is PTX10 ovarian tumor cell line. In words: survival of PTX10 ovarian tumor cell line. Type of series: cell-based. The note with it: PTX10, FIG. 2. The text has this: Additional experiments testing the effect of Compound J and paclitaxel on the survival of PTX10ovarian tumor cell line are shown in FIG. 2. […] In FIG. 2, the circles represent Compound J and the diamonds represent paclitaxel.

The nature of series [4]: pharmacokinetics, intratumoral concentration after intravenous injection. It is filed as in vivo. The note with it: mice with MDA-MB-435 xenograft tumors. The protocol:
Compound J was injected intravenously into mice containing xenograft tumors grown from MDA-MB-435 breast cancer cells. The intratumoral concentration of Compound J was measured as a function of time.

For series [5], the system named is ovarian cell line IGR-OV1. Briefly: growth inhibition (GI50) of tumor cell lines. The following applies: IGR-OV1, FIG. 1. It is filed as cell-based. The protocol:
as §1

The test system of the next series is SKMEL-2. Briefly: growth inhibition (GI50) of tumor cell lines. The note with it: SKMEL-2, FIG. 1. It is filed as cell-based. The protocol: as §1

The values below come from patent US7538129B2, “Diazonamide A analog” (Board of Regents, The University of Texas System, priority 2005, dated 2009).

In general, half-life refers to how long it takes for the measured level to halve.

Values joined by “and” are separate entries in the source; they are usually repeats but may differ in a detail not shown here. Equal values may be shown once. “Also recorded” adds a separate entry of the source.

With `CC(C)[C@H](O)C(=O)N[C@H]1Cc2ccc3c(c2)[C@]24C5=C(N=C(O5)[C@H](C(C)C)NC1=O)c1ncc(o1)-c1c[nH]c5cccc(c15)-c1cccc2c1NC4O3` (stereo in doubt) [Compound J], in series [1], the “#Tumor Free (day)” value is 0/6; the “% Max T/C” value is 6.8% and 3.1%. Further, the “GI50 (concentration that diminishes growth by a factor of two)” value (“GI50” for short) with MDA-MB-231 is recorded as “more effective than the remaining drugs”. Besides, the “GI50” value in series [2] is recorded as “less effective than the remaining drugs”. Besides, in the series on PC-3 xenografts, the “inhibition of growth of PC-3 xenografts” value was “comparable to paclitaxel; also recorded: significantly inhibited tumor growth”, the “% Max T/C” value is on record as 0.3% and the “Log10 Tumor Cell Kill” value was determined as 3.4. The “percentage of cells surviving (survival fraction against concentration)” value in series [3] is “more effective than paclitaxel”. Also, in series [4], the “area under the curve” value was 3010224 ng·min/mL. In series [4] (mouse, tumor, read-out: terminal half-life), the half-life was 4.96 h. Besides, the Vd in series [4] (mouse, tumor, read-out: volume of distribution) stood at 2.9 L/kg.

Take `CC(=O)O[C@H]1C(=O)[C@@]2(C)[C@H]([C@H](OC(=O)c3ccccc3)[C@]3(O)C[C@H](OC(=O)[C@H](O)[C@@H](NC(=O)c4ccccc4)c4ccccc4)C(C)=C1C3(C)C)[C@]1(OC(C)=O)CO[C@@H]1C[C@@H]2O` [paclitaxel, reference compound]: the “GI50” value in series [5] is “significantly less effective than the remaining four drugs”. Also, the “GI50” value in the series on SKMEL-2 is given as “significantly less effective than the remaining four drugs”. Also, in the series on PC-3 xenografts, the “inhibition of growth of PC-3 xenografts” value is listed as “significantly inhibited tumor growth”, the “% Max T/C” value came out at 0% and the “Log10 Tumor Cell Kill” value worked out at 3.4.
